{"source": "patent US20150307938A1", "about": "“METHOD TO IDENTIFY A NOVEL CLASS OF IMMUNOLOGIC ADJUVANTS” (Lancell, L.L.C., priority 2011, published 2015)", "key": {"[1]": {"test_system": "ear skin", "test": "Cutaneous lymphoid stress response gene expression after topical DBP on ear skin", "assay_type": "in vivo", "details": "ear skin of C57B1/6 mice", "text": "(§1) The cutaneous lymphoid stress response bears a strong resemblance to the effects of topical DBP. DBP is required for the induction of contact hypersensitivity to FITC in mice, a form of allergic response. Topical DBP induces the migration of Langerhans cells from the epidermis to draining lymph nodes. And, topical DBP acts as an adjuvant for antigens injected into the skin, including endotoxin-free OVA. One might expect, therefore, that topical DBP would cause the same effects as tape stripping or occlusive skin patch immunization. To our surprise, none of the effects that characterize the DETC-dependent cutaneous lymphoid stress-surveillance response are found in the response to DBP."}, "[2]": {"test_system": "OVA", "test": "Antibody response to endotoxin-free OVA injected intradermally followed by topical DBP", "assay_type": "in vivo, B6 mice", "details": "endotoxin-free OVA i.d. followed by topical DBP", "text": "as §1"}, "[3]": {"test_system": "OVA", "test": "Immune response to intradermal peptide (SIINFEKL) or protein (OVA) antigen, also alum-adsorbed OVA, with topical DBP", "assay_type": "in vivo, mice", "text": "Topical DBP induced a 16-fold increase in the IgG1 Ab response to OVA adsorbed to alum and increased the IgG2c response 26-fold."}, "[4]": {"test_system": "Fluzone", "set-up": "species or system mice", "details": "mouse, in vivo"}, "[5]": {"test_system": "Fluzone", "set-up": "species or system C57BL/6 mice", "details": "mouse, in vivo"}, "[6]": {"test": "Estimate of maximum absorbed dose from transdermal transport rate of DBP on human skin in vivo", "details": "from known transdermal transport rate on human skin in vivo"}, "[7]": {"test_system": "skin", "details": "in vivo"}, "[8]": {"test_system": "skin", "test": "Skin histology after multiple topical applications of DBP", "details": "multiple topical doses"}, "[9]": {"test_system": "skin dendritic cells", "test": "Flow cytometric analysis of Ahr−/− response to topical DBP"}}, "note": "Entries after “also recorded” stand apart in the source; their conditions may differ.", "data": [{"smiles": "CCCCOC(=O)c1ccccc1C(=O)OCCCC", "note": "[DBP, dibutylphthalate]", "values": [{"measurement": "expression of H60a", "setting": "[1]", "result": "no statistically significant increase"}, {"measurement": "expression of Il-13", "setting": "[1]", "result": "no statistically significant increase"}, {"measurement": "expression of Il-25", "setting": "[1]", "result": "no statistically significant increase"}, {"measurement": "expression of KLrk1 (encodes NKG2D)", "setting": "[1]", "result": "no statistically significant increase"}, {"measurement": "expression of Rae-1", "setting": "[1]", "result": "no statistically significant increase; also recorded: actually diminished"}, {"measurement": "antigen-specific IgE", "setting": "[2]", "result": "undetectable"}, {"measurement": "antigen-specific IgG1 antibodies", "setting": "[2]", "result": "significantly elevated"}, {"measurement": "antigen-specific IgG2b antibodies", "setting": "[2]", "result": "significantly elevated"}, {"measurement": "antigen-specific IgG2c antibodies", "setting": "[2]", "result": "significantly elevated"}, {"measurement": "T cell and antibody responses", "setting": "[3]; DBP on skin of mice injected intradermally with adjuvant-free SIINFEKL or OVA", "result": "dramatic increase"}, {"measurement": "survival of anaphylaxis", "setting": "[3]; high dose of alum-adsorbed OVA plus topical DBP, 60% succumbed without DBP", "result": "all of the mice survived"}, {"measurement": "increase in the IgG1 Ab response to OVA adsorbed to alum", "setting": "[3]; topical DBP", "result": 16, "unit": "fold"}, {"measurement": "increase in the IgG2c response to OVA adsorbed to alum", "setting": "[3]; topical DBP", "result": 26, "unit": "fold"}, {"measurement": "IgA Ab in bronchoalveolar lavage", "setting": "[4]", "result": "highly significantly increased"}, {"measurement": "IgA Ab in bronchoalveolar lavage, persistence", "setting": "[4]", "result": "remained undiminished"}, {"measurement": "Serum antibodies of all IgG isotypes", "setting": "[4]", "result": "highly significantly increased"}, {"measurement": "HAI titer / adjuvant effect with the same dose of Fluzone", "setting": "[5]", "result": "majorly improved"}, {"measurement": "maximum absorbed dose from topical use as an adjuvant, vs LOEL in pregnant rats", "setting": "[6]", "result": "five logs lower than the LOEL"}, {"measurement": "maximum absorbed dose from topical use as an adjuvant, vs amount ingested daily", "setting": "[6]", "result": "no higher than the amount we ingest daily"}, {"measurement": "histologic evidence of contact hypersensitivity", "setting": "[7]", "result": "no histologic evidence of contact hypersensitivity"}, {"measurement": "histologic evidence of inflammation in the skin", "setting": "[8]", "result": "no histologic evidence of inflammation"}, {"measurement": "E/C", "setting": "[9]; Ahr−/− mice", "result": 6.375}, {"measurement": "E/C", "setting": "[9]; B6 mice", "result": 5.97}, {"measurement": "skin dendritic cell response in AhR−/− mice", "setting": "[9]; topical application", "result": "no evidence for any impairment"}]}]}
